Data reported in patent US9096581B2, “Fluoroethyl thiamine or salts thereof and application thereof in preparation of anticoccidial drugs” (GUANGZHOU ORIGMOL FEED-ADDITIVE CO., LTD, priority 2012, dated 2015).

Test system: Eimeria tenella GD strains
Assay: Comparison with other anticoccidial drugs in chickens infected with Eimeria tenella GD (Embodiment 3)
Type: in vivo
Parameters: oocyst value: scale not given here
Conditions: for number of oocysts in cecum / lesion value / average weight gain: 7th day; for lesion value: cecum, scale 0-40; for survival rate / average weight gain / bloody feces scoring: chickens; for bloody feces scoring: 5 days after infecting, score 0-4; for oocyst value: converted per Table 2; for relative weight gain rate: vs non-infected non-drug control
Description: 1-day-old Lingnan yellow chickens, purchased from Poultry Research Unit, Bureau of Animal Husbandry, Guangdong Academy of Agricultural Sciences, bred under coccidium-free environment, and subjected to experiment after no coccidium oocyst is found in feces through microscopic examination when the chickens are 14 days old. Perfect compound feed for chickens: prepared by Huizhou Yuantai Feed Co. Ltd., and containing no antibacterial or anticoccidial additive.
Eimeria tenella GD strains, having no resistance to various anticoccidial drugs. Breeding and amplifying in one chicken before the experiment, collecting fresh oocysts, sporulating, and preserving at 4° C. for later use.
Weighing the 14-day-old experiment chickens one by one, rejecting emaciated chickens or overweighted chickens, selecting healthy chickens of which the individual body weight difference is within 20 g, and dividing into 6 groups with 30 chickens in each group. Groups 1 and 2 are respectively a non-drug-applied and non-coccidium-killed control group and a coccidium-infected and non-drug-applied control group, and Groups 3-6 are respectively added with different anticoccidial drugs according to Table 4. Feeding with feed containing different drugs on the day of experiment grouping, enabling the chickens to freely take in the feed, and feeding the chickens until the experiment ends.
Except the non-coccidium-infected and non-drug-applied control group, giving each experiment chicken in each experiment group with 2.5×10^5 eimeria tenella sporulated oocysts via the crop on next day of the grouping day. During experiment, observing and recording the spirit, appetite, bloody feces situation, death count and the like of the chickens every day. Performing bloody feces scoring on the chickens in each group 5 days after infecting. On the 7th day, respectively weighing all the chickens in each group, then autopsying them, observing cecum lesions and counting the oocysts in the cecum.
The evaluation standard is the same with Embodiment 2.

Cc1cc(C)nc(O)n1.O=C(Nc1ccc([N+](=O)[O-])cc1)Nc1ccc([N+](=O)[O-])cc1 [nicarbazin]
anticoccidial index (ACI) (125 ppm in feed): 192.9 | number of oocysts in cecum (125 ppm in feed): 0 ×10^6/chicken | lesion value (125 ppm in feed): 0 | survival rate (125 ppm in feed): 100% | average weight gain (125 ppm in feed): 160.5 g/chicken | bloody feces scoring (125 ppm in feed): 0 | oocyst value (125 ppm in feed): 0 | relative weight gain rate (125 ppm in feed): 92.9%

CO[C@@H]1[C@@H](OC)[C@H](C)[C@@](O)(CC(=O)O)O[C@H]1[C@H](C)[C@H]1O[C@@]2(CC[C@@](C)([C@H]3CC[C@@](C)([C@@H]4O[C@@H]([C@H]5O[C@](C)(O)[C@H](C)C[C@@H]5C)C[C@@H]4O[C@@H]4C[C@H](OC)[C@@H](OC)[C@H](C)O4)O3)O2)C[C@H](O)[C@H]1C [maduramicin]
anticoccidial index (ACI) (5 ppm in feed): 186.7 | number of oocysts in cecum (5 ppm in feed): 1.265 ×10^6/chicken | lesion value (5 ppm in feed): 6 | survival rate (5 ppm in feed): 100% | average weight gain (5 ppm in feed): 168.4 g/chicken | bloody feces scoring (5 ppm in feed): 0 | oocyst value (5 ppm in feed): 5 | relative weight gain rate (5 ppm in feed): 97.7%
